Reference: paper PMC11012124, “Synthesis of Novel Triazine-Based Chalcones and 8,9-dihydro-7H-pyrimido[4,5-b][1,4]diazepines as Potential Leads in the Search of Anticancer, Antibacterial and Antifungal Agents” (International Journal of Molecular Sciences, 2024)

Assays:
60 cancer cell lines = test: NCI-60 one-dose screen (10 μM); format: cell-based; details: Homo sapiens; one dose of 10 μM, mean over 60 cancer cell lines; read-out: Mean Growth Percent (MGP)
Text: Additionally, the mean of the growth percentages (MGP) of each compound against all the 60 cancer cell lines is also reported, which is used as one of the selection criteria to continue with tests at five concentration doses.

HL-60(TB) = test: cells; details: Homo sapiens, HL-60, 48 h; for CC50: read-out: LC50
RPMI-8226 = test: cells; details: Homo sapiens, RPMI-8226, 48 h; for CC50: read-out: LC50
SR = test: cells; details: Homo sapiens, 48 h; for CC50: read-out: LC50
NCI-H226 = test: cells; details: Homo sapiens, NCI-H226, 48 h; for CC50: read-out: LC50
NCI-H322M = test: cells; details: Homo sapiens, 48 h; for CC50: read-out: LC50
NCI-H522 = test: cells; details: Homo sapiens, NCI-H522, 48 h; for CC50: read-out: LC50
SF-539 = test: cells; details: Homo sapiens, SF-539, 48 h; for CC50: read-out: LC50, SF-539, 48 h
SNB-19 = test: cells; details: Homo sapiens, SNB-19, 48 h; for CC50: read-out: LC50
SNB-75 = test: cells; details: Homo sapiens, SNB-75, 48 h
M14 = test: cells; details: Homo sapiens, M14, 48 h; for CC50: read-out: LC50
MDA-MB-435 = test: cells; details: Homo sapiens, MDA-MB-435, 48 h; for CC50: read-out: LC50
UACC-257 = test: cells; details: Homo sapiens, UACC-257, 48 h; for CC50: read-out: LC50
UACC-62 = test: cells; details: Homo sapiens, UACC-62, 48 h; for CC50: read-out: LC50
OVCAR-4 = test: cells; details: Homo sapiens, OVCAR-4, 48 h; for CC50: read-out: LC50
OVCAR-8 = test: cells; details: Homo sapiens, OVCAR-8, 48 h; for CC50: read-out: LC50
SN12C = test: cells; details: Homo sapiens, 48 h; for CC50: read-out: LC50
TK-10 = test: cells; details: Homo sapiens, TK-10, 48 h; for CC50: read-out: LC50
DU-145 = test: cells; details: Homo sapiens, DU-145, 48 h; for CC50: read-out: LC50
MCF7 = test: cells; details: Homo sapiens, MCF7, 48 h; for CC50: read-out: LC50
HS 578T = test: cells; details: Homo sapiens, 48 h; for CC50: read-out: LC50
BT-549 = test: cells; details: Homo sapiens, BT-549, 48 h; for CC50: read-out: LC50
MDA-MB-468 = test: cells; details: Homo sapiens, MDA-MB-468, 48 h; for CC50: read-out: LC50

CN(C)c1nc(NCCNS(=O)(=O)c2ccc(C(=O)/C=C/c3ccccc3)cc2)nc(N2CCOCC2)n1 [23a]
activity at 10 µM (60 cancer cell lines): 61.9%
GI50 (HL-60(TB)): 6.18 µM
CC50 (HL-60(TB)): > 100 µM
GI50 (RPMI-8226): 3.25 µM
CC50 (RPMI-8226): > 100 µM
GI50 (SR): 3.2 µM
CC50 (SR): > 100 µM
GI50 (NCI-H226): 13.5 µM
CC50 (NCI-H226): 74.2 µM
GI50 (NCI-H322M): 14.8 µM
CC50 (NCI-H322M): 56.5 µM
GI50 (NCI-H522): 13.6 µM
CC50 (NCI-H522): 54.1 µM
GI50 (SF-539): 11.1 µM
CC50 (SF-539): 53.2 µM
GI50 (SNB-19): 14.8 µM
CC50 (SNB-19): 57.3 µM
GI50 (SNB-75): 5.49 µM
CC50 (SNB-75; read-out: LC50): 44.6 µM
GI50 (M14): 14.6 µM
CC50 (M14): 68.5 µM
GI50 (MDA-MB-435): 14.7 µM
CC50 (MDA-MB-435): 54.4 µM
GI50 (UACC-257): 17.9 µM
CC50 (UACC-257): 58.3 µM
GI50 (UACC-62): 12 µM
CC50 (UACC-62): 52.3 µM
GI50 (OVCAR-4): 14.3 µM
CC50 (OVCAR-4): 54 µM
GI50 (OVCAR-8): 16.4 µM
CC50 (OVCAR-8): 61.7 µM
GI50 (SN12C): 14.6 µM
CC50 (SN12C): 56.1 µM
GI50 (TK-10): 16.4 µM
CC50 (TK-10): 55.5 µM
GI50 (DU-145): 15.1 µM
CC50 (DU-145): 53.3 µM
GI50 (MCF7): 3.49 µM
CC50 (MCF7): 62 µM
GI50 (HS 578T): 17.1 µM
CC50 (HS 578T): > 100 µM
GI50 (BT-549): 11.2 µM
CC50 (BT-549): 50 µM
GI50 (MDA-MB-468): 4.17 µM
CC50 (MDA-MB-468): 49.9 µM

CN(C)c1nc(NCCNS(=O)(=O)c2ccc(C(=O)/C=C/c3ccc(F)cc3)cc2)nc(N2CCOCC2)n1 [23f]
activity at 10 µM (60 cancer cell lines): 27.6%
GI50 (HL-60(TB)): 14.7 µM
CC50 (HL-60(TB)): > 100 µM
GI50 (RPMI-8226): 1.91 µM
CC50 (RPMI-8226): > 100 µM
GI50 (SR): 3.45 µM
CC50 (SR): > 100 µM
GI50 (NCI-H226): 12.3 µM
CC50 (NCI-H226): 64.7 µM
GI50 (NCI-H322M): 13.2 µM
CC50 (NCI-H322M): 50.9 µM
GI50 (NCI-H522): 13.3 µM
CC50 (NCI-H522): 53.2 µM
GI50 (SF-539): 13.2 µM
CC50 (SF-539): 51.1 µM
GI50 (SNB-19): 13.4 µM
CC50 (SNB-19): 52.1 µM
GI50 (M14): 15 µM
CC50 (M14): 62.2 µM
GI50 (MDA-MB-435): 11.6 µM
CC50 (MDA-MB-435): 51.9 µM
GI50 (UACC-257): 15.5 µM
CC50 (UACC-257): 54.9 µM
GI50 (UACC-62): 10.8 µM
CC50 (UACC-62): 49.1 µM
GI50 (OVCAR-4): 11.9 µM
CC50 (OVCAR-4): 51.1 µM
GI50 (OVCAR-8): 14.7 µM
CC50 (OVCAR-8): 54 µM
GI50 (SN12C): 12 µM
CC50 (SN12C): 50 µM
GI50 (TK-10): 15.3 µM
CC50 (TK-10): 53.8 µM
GI50 (DU-145): 14.4 µM
CC50 (DU-145): 53.8 µM
GI50 (MCF7): 2.99 µM
CC50 (MCF7): 46.7 µM
GI50 (HS 578T): 14.6 µM
CC50 (HS 578T): > 100 µM
GI50 (BT-549): 15.1 µM
CC50 (BT-549): 56.7 µM
GI50 (MDA-MB-468): 8.08 µM
CC50 (MDA-MB-468): 54.7 µM

CN(C)c1nc(NCCNS(=O)(=O)c2ccc(C(=O)/C=C/c3ccc(C(F)(F)F)cc3)cc2)nc(N2CCOCC2)n1 [23g]
activity at 10 µM (60 cancer cell lines): -14.8%
GI50 (HL-60(TB)): 5.12 µM
CC50 (HL-60(TB)): > 100 µM
GI50 (RPMI-8226): 1.77 µM
CC50 (RPMI-8226): > 100 µM
GI50 (SR): 6.31 µM
CC50 (SR): > 100 µM
GI50 (NCI-H226): 16.1 µM
CC50 (NCI-H226): 78.9 µM
GI50 (NCI-H322M): 14.2 µM
CC50 (NCI-H322M): 52.1 µM
GI50 (NCI-H522): 15.2 µM
CC50 (NCI-H522): 58.2 µM
GI50 (SF-539): 13 µM
CC50 (SF-539): 50.7 µM
GI50 (SNB-19): 13.5 µM
CC50 (SNB-19): 51.3 µM
GI50 (M14): 9.83 µM
CC50 (M14): 49.5 µM
GI50 (MDA-MB-435): 10.3 µM
CC50 (MDA-MB-435): 51.1 µM
GI50 (UACC-257): 15.3 µM
CC50 (UACC-257): 56.5 µM
GI50 (UACC-62): 11.2 µM
CC50 (UACC-62): 48.5 µM
GI50 (OVCAR-4): 14.8 µM
CC50 (OVCAR-4): 56.5 µM
GI50 (OVCAR-8): 14.4 µM
CC50 (OVCAR-8): 54.9 µM
GI50 (SN12C): 12.5 µM
CC50 (SN12C): 50 µM
GI50 (TK-10): 15.5 µM
CC50 (TK-10): 56 µM
GI50 (DU-145): 15.4 µM
CC50 (DU-145): 54.5 µM
GI50 (MCF7): 1.68 µM
CC50 (MCF7): 6.63 µM
GI50 (HS 578T): 17.8 µM
CC50 (HS 578T): > 100 µM
GI50 (BT-549): 15.6 µM
CC50 (BT-549): 54.9 µM
GI50 (MDA-MB-468): 5.11 µM
CC50 (MDA-MB-468): 48.8 µM
